{"source": "ChEMBL document CHEMBL1142913", "about": "“Novel synthesis of [1]-benzothiepino[5,4-b]pyridine-3-carbonitriles and their anti-inflammatory properties” (Bioorg Med Chem, 2007)"}
{"test_system": "Rattus norvegicus", "test": "Antiinflammatory activity against carrageenan-induced paw oedema in Wistar Albino rat assessed as mean swelling paw volume at 50 mg/kg, ip after 2 hrs", "type": "functional", "details": "route intraperitoneal", "units": {"Activity": "mL"}}
{"smiles": "C1COCCN1.COc1ccc(-c2c(C#N)c(S)[nH]c(=S)c2C#N)cc1.O", "Activity": 0.498}
{"smiles": "COc1nc2c(c(-c3ccccc3)c1C#N)CCSc1ccccc1-2", "Activity": 0.437}
{"smiles": "COc1nc2c(c(-c3ccco3)c1C#N)CCSc1ccccc1-2", "Activity": 0.548}
{"smiles": "COc1nc2c(c(-c3ccc(Cl)cc3)c1C#N)CCSc1ccccc1-2", "Activity": 0.283}
{"smiles": "CCOc1nc2c(c(-c3ccc(Cl)cc3)c1C#N)CCSc1ccccc1-2", "Activity": 0.138}
{"smiles": "COc1ccc(-c2c(C#N)c(OC)nc3c2CCSc2ccccc2-3)cc1", "Activity": 0.203}
{"test_system": "Rattus norvegicus", "test": "Antiinflammatory activity in Wistar Albino rat assessed as inhibition of carrageenan-induced paw oedema at 50 mg/kg, ip after 2 hrs", "type": "functional", "details": "route intraperitoneal", "units": {"inhibition in vivo at 50 mg/kg": "%"}}
{"smiles": "C1COCCN1.COc1ccc(-c2c(C#N)c(S)[nH]c(=S)c2C#N)cc1.O", "inhibition in vivo at 50 mg/kg": 55.5}
{"smiles": "COc1nc2c(c(-c3ccccc3)c1C#N)CCSc1ccccc1-2", "inhibition in vivo at 50 mg/kg": 61}
{"smiles": "COc1nc2c(c(-c3ccco3)c1C#N)CCSc1ccccc1-2", "inhibition in vivo at 50 mg/kg": 51.1}
{"smiles": "COc1nc2c(c(-c3ccc(Cl)cc3)c1C#N)CCSc1ccccc1-2", "inhibition in vivo at 50 mg/kg": 74.7}
{"smiles": "CCOc1nc2c(c(-c3ccc(Cl)cc3)c1C#N)CCSc1ccccc1-2", "inhibition in vivo at 50 mg/kg": 87.7}
{"smiles": "COc1ccc(-c2c(C#N)c(OC)nc3c2CCSc2ccccc2-3)cc1", "inhibition in vivo at 50 mg/kg": 81.9}
{"test_system": "Rattus norvegicus", "test": "Antiinflammatory activity against carrageenan-induced paw oedema in Wistar Albino rat assessed as mean swelling paw volume at 50 mg/kg, ip after 1 hr", "type": "functional", "details": "route intraperitoneal", "units": {"Activity": "mL"}}
{"smiles": "C1COCCN1.COc1ccc(-c2c(C#N)c(S)[nH]c(=S)c2C#N)cc1.O", "Activity": 0.42}
{"smiles": "COc1nc2c(c(-c3ccccc3)c1C#N)CCSc1ccccc1-2", "Activity": 0.278}
{"smiles": "COc1nc2c(c(-c3ccco3)c1C#N)CCSc1ccccc1-2", "Activity": 0.124}
{"smiles": "COc1nc2c(c(-c3ccc(Cl)cc3)c1C#N)CCSc1ccccc1-2", "Activity": 0.223}
{"smiles": "CCOc1nc2c(c(-c3ccc(Cl)cc3)c1C#N)CCSc1ccccc1-2", "Activity": 0.113}
{"smiles": "COc1ccc(-c2c(C#N)c(OC)nc3c2CCSc2ccccc2-3)cc1", "Activity": 0.25}
{"test_system": "Rattus norvegicus", "test": "Antiinflammatory activity against carrageenan-induced paw oedema in Wistar Albino rat assessed as mean swelling paw volume at 50 mg/kg, ip after 4 hrs", "type": "functional", "details": "route intraperitoneal", "units": {"Activity": "mL"}}
{"smiles": "C1COCCN1.COc1ccc(-c2c(C#N)c(S)[nH]c(=S)c2C#N)cc1.O", "Activity": 0.536}
{"smiles": "COc1nc2c(c(-c3ccccc3)c1C#N)CCSc1ccccc1-2", "Activity": 0.305}
{"smiles": "COc1nc2c(c(-c3ccco3)c1C#N)CCSc1ccccc1-2", "Activity": 0.508}
{"smiles": "COc1nc2c(c(-c3ccc(Cl)cc3)c1C#N)CCSc1ccccc1-2", "Activity": 0.396}
{"smiles": "CCOc1nc2c(c(-c3ccc(Cl)cc3)c1C#N)CCSc1ccccc1-2", "Activity": 0.212}
{"smiles": "COc1ccc(-c2c(C#N)c(OC)nc3c2CCSc2ccccc2-3)cc1", "Activity": 0.238}
{"test_system": "Rattus norvegicus", "test": "Antiinflammatory activity in Wistar Albino rat assessed as inhibition of carrageenan-induced paw oedema at 50 mg/kg, ip after 1 hr", "type": "functional", "details": "route intraperitoneal", "units": {"inhibition in vivo at 50 mg/kg": "%"}}
{"smiles": "C1COCCN1.COc1ccc(-c2c(C#N)c(S)[nH]c(=S)c2C#N)cc1.O", "inhibition in vivo at 50 mg/kg": 30.6}
{"smiles": "COc1nc2c(c(-c3ccccc3)c1C#N)CCSc1ccccc1-2", "inhibition in vivo at 50 mg/kg": 54}
{"smiles": "COc1nc2c(c(-c3ccco3)c1C#N)CCSc1ccccc1-2", "inhibition in vivo at 50 mg/kg": 79.5}
{"smiles": "COc1nc2c(c(-c3ccc(Cl)cc3)c1C#N)CCSc1ccccc1-2", "inhibition in vivo at 50 mg/kg": 63.1}
{"smiles": "CCOc1nc2c(c(-c3ccc(Cl)cc3)c1C#N)CCSc1ccccc1-2", "inhibition in vivo at 50 mg/kg": 81.3}
{"smiles": "COc1ccc(-c2c(C#N)c(OC)nc3c2CCSc2ccccc2-3)cc1", "inhibition in vivo at 50 mg/kg": 58.7}
{"test_system": "Mus musculus", "test": "Toxicity in intraperitoneally dosed Albino mouse after 24 hrs", "type": "organism-based", "details": "in vivo, ip"}
{"smiles": "CCOc1nc2c(c(-c3ccc(Cl)cc3)c1C#N)CCSc1ccccc1-2", "Activity": "Non-toxic"}
{"smiles": "COc1ccc(-c2c(C#N)c(OC)nc3c2CCSc2ccccc2-3)cc1", "Activity": "Non-toxic"}
{"test_system": "Rattus norvegicus", "test": "Antiinflammatory activity against carrageenan-induced paw oedema in Wistar Albino rat assessed as mean swelling paw volume at 50 mg/kg, ip after 3 hrs", "type": "functional", "details": "route intraperitoneal", "units": {"Activity": "mL"}}
{"smiles": "C1COCCN1.COc1ccc(-c2c(C#N)c(S)[nH]c(=S)c2C#N)cc1.O", "Activity": 0.44}
{"smiles": "COc1nc2c(c(-c3ccccc3)c1C#N)CCSc1ccccc1-2", "Activity": 0.558}
{"smiles": "COc1nc2c(c(-c3ccco3)c1C#N)CCSc1ccccc1-2", "Activity": 0.572}
{"smiles": "COc1nc2c(c(-c3ccc(Cl)cc3)c1C#N)CCSc1ccccc1-2", "Activity": 0.277}
{"smiles": "CCOc1nc2c(c(-c3ccc(Cl)cc3)c1C#N)CCSc1ccccc1-2", "Activity": 0.158}
{"smiles": "COc1ccc(-c2c(C#N)c(OC)nc3c2CCSc2ccccc2-3)cc1", "Activity": 0.178}
{"test_system": "Rattus norvegicus", "test": "Antiinflammatory activity in Wistar Albino rat assessed as inhibition of carrageenan-induced paw oedema at 50 mg/kg, ip after 4 hrs", "type": "functional", "details": "route intraperitoneal", "units": {"inhibition in vivo at 50 mg/kg": "%"}}
{"smiles": "C1COCCN1.COc1ccc(-c2c(C#N)c(S)[nH]c(=S)c2C#N)cc1.O", "inhibition in vivo at 50 mg/kg": 66.5}
{"smiles": "COc1nc2c(c(-c3ccccc3)c1C#N)CCSc1ccccc1-2", "inhibition in vivo at 50 mg/kg": 80.9}
{"smiles": "COc1nc2c(c(-c3ccco3)c1C#N)CCSc1ccccc1-2", "inhibition in vivo at 50 mg/kg": 68.3}
{"smiles": "COc1nc2c(c(-c3ccc(Cl)cc3)c1C#N)CCSc1ccccc1-2", "inhibition in vivo at 50 mg/kg": 75.3}
{"smiles": "CCOc1nc2c(c(-c3ccc(Cl)cc3)c1C#N)CCSc1ccccc1-2", "inhibition in vivo at 50 mg/kg": 86.8}
{"smiles": "COc1ccc(-c2c(C#N)c(OC)nc3c2CCSc2ccccc2-3)cc1", "inhibition in vivo at 50 mg/kg": 85.1}
{"test_system": "Rattus norvegicus", "test": "Antiinflammatory activity in Wistar Albino rat assessed as inhibition of carrageenan-induced paw oedema at 50 mg/kg, ip after 3 hrs", "type": "functional", "details": "route intraperitoneal", "units": {"inhibition in vivo at 50 mg/kg": "%"}}
{"smiles": "C1COCCN1.COc1ccc(-c2c(C#N)c(S)[nH]c(=S)c2C#N)cc1.O", "inhibition in vivo at 50 mg/kg": 67.8}
{"smiles": "COc1nc2c(c(-c3ccccc3)c1C#N)CCSc1ccccc1-2", "inhibition in vivo at 50 mg/kg": 59.2}
{"smiles": "COc1nc2c(c(-c3ccco3)c1C#N)CCSc1ccccc1-2", "inhibition in vivo at 50 mg/kg": 58.2}
{"smiles": "COc1nc2c(c(-c3ccc(Cl)cc3)c1C#N)CCSc1ccccc1-2", "inhibition in vivo at 50 mg/kg": 79.8}
{"smiles": "CCOc1nc2c(c(-c3ccc(Cl)cc3)c1C#N)CCSc1ccccc1-2", "inhibition in vivo at 50 mg/kg": 88.5}
{"smiles": "COc1ccc(-c2c(C#N)c(OC)nc3c2CCSc2ccccc2-3)cc1", "inhibition in vivo at 50 mg/kg": 87}
